Data from patent US7754880B2, “Uracils having a herbicidal activity” (Isagro Ricerca S.r.l., priority 2002, dated 2010).

Tests used:
Galium aparine [1] = assay: Herbicidal activity in pre-emergence; type: in vivo; conditions: dosage of 15 g/ha, fifteen days after the treatment, damage vs non-treated plants
Method: (§1) Determination of the Herbicidal Activity and Phytotoxicity in Pre-Emergence The herbicidal activity of the compounds of the invention in pre-emergence was evaluated according to the following operative procedures. The vegetable species of interest (weeds or crops) were sown in pots with an upper diameter of 10 cm, a height of 10 cm and containing sandy soil. 10 pots were used for each vegetable species. Water was added to each pot in such a quantity as to germinate the seeds. The pots were divided into two groups, each containing 5 pots for each weed or crop. After one day from the sowing, the first set of pots was treated with a hydro-acetonic dispersion containing acetone at 10% in volume, the product under evaluation at the desired concentration and Tween 20 at 0.5%. The second set was treated with a hydro-acetonic solution only, containing acetone at 10% in volume and Tween 20 at 0.5%, and was used as comparison (blank). All pots were kept under observation in a conditioned environment under the following conditions: temperature: 24° C.; relative humidity: 60%; photoperiod: 16 ore; light intensity: 10000 lux. The pots were uniformly watered in order to ensure a sufficient humidity degree for a good development of the plants.

Sida spinosa [2] = assay: Herbicidal activity in pre-emergence; type: in vivo; conditions: dosage of 15 g/ha, fifteen days after the treatment, damage vs non-treated plants
Method: as §1

Amaranthus retroflexus [3] = assay: Herbicidal activity in pre-emergence; type: in vivo; conditions: dosage of 15 g/ha, fifteen days after the treatment, damage vs non-treated plants
Method: as §1

Solanum nigrum [4] = assay: Herbicidal activity in pre-emergence; type: in vivo; conditions: dosage of 15 g/ha, fifteen days after the treatment, damage vs non-treated plants
Method: as §1

Convolvulus sepium [5] = assay: Herbicidal activity in pre-emergence; type: in vivo; conditions: dosage of 15 g/ha, fifteen days after the treatment, damage vs non-treated plants
Method: as §1

Portulaca oleracea [6] = assay: Herbicidal activity in pre-emergence; type: in vivo; conditions: dosage of 15 g/ha, fifteen days after the treatment, damage vs non-treated plants
Method: as §1

Abutilon theofrasti [7] = assay: Herbicidal activity in pre-emergence; type: in vivo; conditions: dosage of 15 g/ha, fifteen days after the treatment, damage vs non-treated plants
Method: as §1

Ipomea purpurea [8] = assay: Herbicidal activity in pre-emergence; type: in vivo; conditions: dosage of 15 g/ha, fifteen days after the treatment, damage vs non-treated plants
Method: as §1

Chenopodium album [9] = assay: Herbicidal activity in pre-emergence; type: in vivo; conditions: dosage of 15 g/ha, fifteen days after the treatment, damage vs non-treated plants
Method: as §1

Galium aparine [10] = assay: Herbicidal activity in post-emergence; type: in vivo; conditions: dosage of 15 g/ha, fifteen days after the treatment, damage vs non-treated plants
Method: (§2) Determination of the Herbicidal Activity and Phytotoxicity in Post-Emergence The herbicidal activity of the compounds of the invention in post-emergence was evaluated according to the following operative procedures. The vegetable species of interest (weeds or crops) were sown in pots with an upper diameter of 10 cm, a height of 10 cm and containing sandy soil. 10 pots were used for each vegetable species. Water was added to each pot in such a quantity as to germinate the seeds. The pots were divided into two groups, each containing 5 pots for each weed or crop. Fifteen days after sowing (ten, in the case of wheat), when the weeds and crops, according to the species, were 10-15 cm high, the first set of pots was treated with a hydro-acetonic dispersion containing acetone at 10% in volume, the product under evaluation at the desired concentration and Tween 20 at 0.5%. The second set was treated with a hydro-acetonic solution only, containing acetone at 10% in volume and Tween 20 at 0.5%, and was used as comparison (blank). All pots were kept under observation in a conditioned environment under the following conditions: temperature: 24° C.; relative humidity: 60%; photo-period: 16 ore; light intensity: 10000 lux. The pots were uniformly watered every other day so as to ensure a humidity degree sufficient for a good development of the plants.

Sida spinosa [11] = assay: Herbicidal activity in post-emergence; type: in vivo; conditions: dosage of 15 g/ha, fifteen days after the treatment, damage vs non-treated plants
Method: as §2

Amaranthus retroflexus [12] = assay: Herbicidal activity in post-emergence; type: in vivo; conditions: dosage of 15 g/ha, fifteen days after the treatment, damage vs non-treated plants
Method: as §2

Solanum nigrum [13] = assay: Herbicidal activity in post-emergence; type: in vivo; conditions: dosage of 15 g/ha, fifteen days after the treatment, damage vs non-treated plants
Method: as §2

Convolvulus sepium [14] = assay: Herbicidal activity in post-emergence; type: in vivo; conditions: dosage of 15 g/ha, fifteen days after the treatment, damage vs non-treated plants
Method: as §2

Portulaca oleracea [15] = assay: Herbicidal activity in post-emergence; type: in vivo; conditions: dosage of 15 g/ha, fifteen days after the treatment, damage vs non-treated plants
Method: as §2

Abutilon theofrasti [16] = assay: Herbicidal activity in post-emergence; type: in vivo; conditions: dosage of 15 g/ha, fifteen days after the treatment, damage vs non-treated plants
Method: as §2

Ipomea purpurea [17] = assay: Herbicidal activity in post-emergence; type: in vivo; conditions: dosage of 15 g/ha, fifteen days after the treatment, damage vs non-treated plants
Method: as §2

Chenopodium album [18] = assay: Herbicidal activity in post-emergence; type: in vivo; conditions: dosage of 15 g/ha, fifteen days after the treatment, damage vs non-treated plants
Method: as §2

In the case of `COC(=O)/C=C(\COc1cc(-n2c(=O)cc(C(F)(F)F)n(C)c2=O)c(F)cc1Cl)OC` [Compound No 2, methyl (2E)-4-{2-chloro-4-fluoro-5-[1,2,3,6-tetrahydro-3-methyl-2,6-dioxo-4-(trifluoromethyl)pyrimidin-1-yl]phenoxy}-3-methoxybut-2-enoate], the “Herbicidal activity in pre-emergence, GA” value (Galium aparine [1]) is reported as 5 (5=91% damage—death of the plant), the “Herbicidal activity in pre-emergence, SS” value (Sida spinosa [2]) is reported as 5 (5=91% damage—death of the plant) and the “Herbicidal activity in pre-emergence, AR” value (Amaranthus retroflexus [3]) is reported as 5 (5=91% damage—death of the plant). For the same compound, the “Herbicidal activity in pre-emergence, SN” value (Solanum nigrum [4]) was 5 (5=91% damage—death of the plant), the “Herbicidal activity in pre-emergence, CS” value (Convolvulus sepium [5]) was 5 (5=91% damage—death of the plant) and the “Herbicidal activity in pre-emergence, PO” value (Portulaca oleracea [6]) was 5 (5=91% damage—death of the plant). The “Herbicidal activity in pre-emergence, AT” value (Abutilon theofrasti [7]) was 5 (5=91% damage—death of the plant), the “Herbicidal activity in pre-emergence, IP” value (Ipomea purpurea [8]) was 5 (5=91% damage—death of the plant) and the “Herbicidal activity in pre-emergence, CA” value (Chenopodium album [9]) was 5 (5=91% damage—death of the plant). For the same compound, the “Herbicidal activity in post-emergence, GA” value (Galium aparine [10]) was 5 (5=91% damage—death of the plant), the “Herbicidal activity in post-emergence, SS” value (Sida spinosa [11]) was 5 (5=91% damage—death of the plant) and the “Herbicidal activity in post-emergence, AR” value (Amaranthus retroflexus [12]) was 5 (5=91% damage—death of the plant). The “Herbicidal activity in post-emergence, SN” value (Solanum nigrum [13]) was 5 (5=91% damage—death of the plant), the “Herbicidal activity in post-emergence, CS” value (Convolvulus sepium [14]) was 5 (5=91% damage—death of the plant) and the “Herbicidal activity in post-emergence, PO” value (Portulaca oleracea [15]) was 4 (4=71-90% damage). The “Herbicidal activity in post-emergence, AT” value (Abutilon theofrasti [16]) was 5 (5=91% damage—death of the plant), the “Herbicidal activity in post-emergence, IP” value (Ipomea purpurea [17]) was 5 (5=91% damage—death of the plant) and the “Herbicidal activity in post-emergence, CA” value (Chenopodium album [18]) was 5 (5=91% damage—death of the plant).

For `Cn1c(C(F)(F)F)cc(=O)n(-c2cc(OCc3nnc(C(C)(C)C)o3)c(Cl)cc2F)c1=O` [Compound No 6, 3-{5-[(5-tert-butyl-1,3,4-oxadiazol-2-yl)methoxy]-4-chloro-2-fluorophenyl}-1-methyl-6-(trifluoromethyl)-2,4(1H,3H)-pyrimidinedione], the “Herbicidal activity in pre-emergence, GA” value (Galium aparine [1]) was 5 (5=91% damage—death of the plant), the “Herbicidal activity in pre-emergence, SS” value (Sida spinosa [2]) was 5 (5=91% damage—death of the plant) and the “Herbicidal activity in pre-emergence, AR” value (Amaranthus retroflexus [3]) was 4 (4=71-90% damage). The “Herbicidal activity in pre-emergence, SN” value (Solanum nigrum [4]) was 5 (5=91% damage—death of the plant), the “Herbicidal activity in pre-emergence, PO” value (Portulaca oleracea [6]) was 5 (5=91% damage—death of the plant) and the “Herbicidal activity in pre-emergence, AT” value (Abutilon theofrasti [7]) was 5 (5=91% damage—death of the plant). The “Herbicidal activity in pre-emergence, IP” value (Ipomea purpurea [8]) was 4 (4=71-90% damage), the “Herbicidal activity in pre-emergence, CA” value (Chenopodium album [9]) was 5 (5=91% damage—death of the plant) and the “Herbicidal activity in post-emergence, SS” value (Sida spinosa [11]) was 4 (4=71-90% damage). The “Herbicidal activity in post-emergence, AR” value (Amaranthus retroflexus [12]) was 3 (3=51-70% damage), the “Herbicidal activity in post-emergence, SN” value (Solanum nigrum [13]) was 5 (5=91% damage—death of the plant) and the “Herbicidal activity in post-emergence, PO” value (Portulaca oleracea [15]) was 4 (4=71-90% damage). For the same compound, the “Herbicidal activity in post-emergence, AT” value (Abutilon theofrasti [16]) was 5 (5=91% damage—death of the plant), the “Herbicidal activity in post-emergence, IP” value (Ipomea purpurea [17]) was 5 (5=91% damage—death of the plant) and the “Herbicidal activity in post-emergence, CA” value (Chenopodium album [18]) was 4 (4=71-90% damage).

Work on `COC(=O)/C=C(\COc1cc(-n2c(=O)cc(C(F)(F)F)n(C)c2=O)c(Cl)cc1Cl)OC` [Compound No 3, methyl (2E)-4-{2,4-dichloro-5-[1,2,3,6-tetrahydro-3-methyl-2,6-dioxo-4-(trifluoromethyl)pyrimidin-1-yl]phenoxy}-3-methoxybut-2-enoate] yielded a melting point of 116 °C.

Compound `CCn1nnc(-c2cc(-n3c(=O)cc(C(F)(F)F)n(C)c3=O)ccc2Cl)n1` [Compound No 15, 3-[4-chloro-3-(2-ethyl-2H-tetrazol-5-yl)phenyl]-1-methyl-6-(trifluoromethyl)-2,4(1H,3H)-pyrimidinedione] has a melting point of 136 °C.

Work on `COC(=O)Cn1nnc(COc2cc(-n3c(=O)cc(C(F)(F)F)n(C)c3=O)c(F)cc2Cl)n1` [Compound No 11, methyl [5-({2-chloro-4-fluoro-5-[1,2,3,6-tetrahydro-3-methyl-2,6-dioxo-4-(trifluoromethyl)pyrimidin-1-yl]phenoxy}methyl)-2H-tetrazol-2-yl]acetate] yielded a melting point of 65 °C.

With `CCn1nnnc1-c1cc(-n2c(=O)cc(C(F)(F)F)n(C)c2=O)ccc1Cl` [Compound No 16, 3-[4-chloro-3-(1-ethyl-1H-tetrazol-5-yl)phenyl]-1-methyl-6-(trifluoromethyl)-2,4(1H,3H)-pyrimidinedione] the melting point was 202 °C.

Work on `C=CCn1nnc(-c2cc(-n3c(=O)cc(C(F)(F)F)n(C)c3=O)ccc2Cl)n1` [Compound No 105, 3-[3-(2-allyl-2H-tetrazol-5-yl)-4-chlorophenyl]-1-methyl-6-(trifluoromethyl)-2,4(1H,3H)-pyrimidinedione] yielded a melting point of 116 °C.

In the case of `Cn1c(C(F)(F)F)cc(=O)n(-c2cc(OCc3ncon3)c(Cl)cc2F)c1=O` [Compound No 117, 3-[4-chloro-2-fluoro-5-(1,2,4-oxadiazol-3-ylmethoxy)phenyl]-1-methyl-6-(trifluoromethyl)-2,4(1H,3H)-pyrimidinedione], the melting point is reported as 122 °C.

`Cc1nc(COc2cc(-n3c(=O)cc(C(F)(F)F)n(C)c3=O)c(Cl)cc2Cl)no1` [Compound No 112, 3-{2,4-dichloro-5-[(5-methyl-1,2,4-oxadiazol-3-yl)methoxy]phenyl}-1-methyl-6-(trifluoromethyl)-2,4(1H,3H)-pyrimidinedione] showed a melting point of 167 °C.

In the case of `CCOCn1nnc(-c2cc(-n3c(=O)cc(C(F)(F)F)n(C)c3=O)ccc2Cl)n1` [Compound No 103, 3-{4-chloro-3-[2-(ethoxymethyl)-2H-tetrazol-5-yl]phenyl}-1-methyl-6-(trifluoromethyl)-2,4(1H,3H)-pyrimidinedione], the melting point is reported as 140 °C.

Compound `COC(=O)Cn1nnnc1COc1cc(-n2c(=O)cc(C(F)(F)F)n(C)c2=O)c(F)cc1Cl` [Compound No 10, methyl [5-({2-chloro-4-fluoro-5-[1,2,3,6-tetrahydro-3-methyl-2,6-dioxo-4-(trifluoromethyl)pyrimidin-1-yl]phenoxy}methyl)-1H-tetrazol-1-yl]acetate] has a melting point of 243 °C.

With `Cc1cc(COc2cc(-n3c(=O)cc(C(F)(F)F)n(C)c3=O)c(F)cc2Cl)on1` [Compound No 107, 3-{4-chloro-2-fluoro-5-[(3-methylisoxazol-5-yl)methoxy]phenyl}-1-methyl-6-(trifluoromethyl)-2,4(1H,3H)-pyrimidinedione] the melting point was 154 °C.

With `Cn1nnc(-c2cc(-n3c(=O)cc(C(F)(F)F)n(C)c3=O)ccc2Cl)n1` [Compound No 13, 3-[4-chloro-3-(2-methyl-2H-tetrazol-5-yl)phenyl]-1-methyl-6-(trifluoromethyl)-2,4(1H,3H)-pyrimidinedione] the “Herbicidal activity in pre-emergence, GA” value (Galium aparine [1]) was 5 (5=91% damage—death of the plant), the “Herbicidal activity in pre-emergence, SS” value (Sida spinosa [2]) was 5 (5=91% damage—death of the plant) and the “Herbicidal activity in pre-emergence, AR” value (Amaranthus retroflexus [3]) was 5 (5=91% damage—death of the plant). The “Herbicidal activity in pre-emergence, SN” value (Solanum nigrum [4]) was 5 (5=91% damage—death of the plant), the “Herbicidal activity in pre-emergence, PO” value (Portulaca oleracea [6]) was 5 (5=91% damage—death of the plant) and the “Herbicidal activity in pre-emergence, AT” value (Abutilon theofrasti [7]) was 5 (5=91% damage—death of the plant). The “Herbicidal activity in pre-emergence, IP” value (Ipomea purpurea [8]) was 5 (5=91% damage—death of the plant), the “Herbicidal activity in pre-emergence, CA” value (Chenopodium album [9]) was 5 (5=91% damage—death of the plant) and the melting point was 192 °C. For the same compound, the “Herbicidal activity in post-emergence, SS” value (Sida spinosa [11]) was 5 (5=91% damage—death of the plant), the “Herbicidal activity in post-emergence, AR” value (Amaranthus retroflexus [12]) was 5 (5=91% damage—death of the plant) and the “Herbicidal activity in post-emergence, SN” value (Solanum nigrum [13]) was 5 (5=91% damage—death of the plant). For the same compound, the “Herbicidal activity in post-emergence, PO” value (Portulaca oleracea [15]) was 5 (5=91% damage—death of the plant), the “Herbicidal activity in post-emergence, AT” value (Abutilon theofrasti [16]) was 5 (5=91% damage—death of the plant) and the “Herbicidal activity in post-emergence, IP” value (Ipomea purpurea [17]) was 5 (5=91% damage—death of the plant). For the same compound, the “Herbicidal activity in post-emergence, CA” value (Chenopodium album [18]) was 5 (5=91% damage—death of the plant).
